# Read-outs that look alike come from different tables or passages of the source.
# Experiments:
# PC-3 xenograft = assay: Human prostatic carcinoma PC-3 xenograft mouse model; type: in vivo
# Method: To determine the anti-tumour activity of WF-208 in vivo, viable human prostate cancer PC-3 cells (5 × 10^6/100 μl PBS per mouse) were subcutaneously (s.c.) injected into the right flank of 7- to 8-week old male SCID mice. When the average tumour volume reached 100 mm^3, mice were randomly divided into various treatment and control group (eight mice per group). Tumour size was measured once every 2 days with a calliper (calculated volume = shortest diameter^2 × longest diameter/2). Body weight, diet consumption and tumour size were recorded once every 2 days. After 2 weeks, mice were killed and tumours were excised and stored at −80°C until further analysis.
# [1] = tested on: HL-60 and U-937 cell lines; assay: Western blot of Bcl-2 family and IAP proteins in HL-60 and U-937; type: cell-based, human; conditions: various concentrations, 24 hrs
# Method: Approximately 1 × 10^7 HL-60 cells were gathered after pre-treatment with PAC-1 and WF-208 as previously described. The tumour tissue protein was purified according to the reported methods. Western blotting was performed as previously described. All antibodies were purchased from Cell Signaling Technology. In brief, an equal amount of total protein extracts from cultured cells or tissues were fractionated by 10–15% SDS-PAGE and electrically transferred onto polyvinylidene difluoride (PVDF) membranes. Different primary antibodies and corresponding horseradish peroxidase-conjugated secondary antibodies were used to detect the proteins. The bound secondary antibodies on the PVDF membrane were reacted with ECL™ Western Blotting Reagents detection reagents (Thermo Fisher, Rockford, USA) and exposed to X-ray films. Results were normalized to the internal control β-actin.
# [2] = tested on: procaspase-3-silenced HL-60 cells; assay: Cytotoxicity in procaspase-3 silenced HL-60 cells; type: cell-based, human; conditions: different concentrations, 24 hrs, vs scrambled siRNA control
# Method: The cell viability effects of the tested compounds were determined by MTT assay. Cells (1 × 10^4 cells/100 μl/well) were seeded into 96-well culture plates. […] Subsequently, 10 μl MTT solution (2.5 mg/ml in PBS) was added to each well, than the cells were incubated for an additional 3–4 hrs at 37°C. After centrifugation (200 × g, 10 min.), the medium with MTT was aspirated, followed by the addition of 100 μl DMSO. The optical density of each well was measured at 570 nm with a Biotek Synergy TM HT Reader.
# HL-60 cells were transfected with procaspase-3 siRNA (Invitrogen, New York, USA, 100 nmol/l final concentration, Sense siRNA Sequence: GUCUAACUGGAAAACCCAAtt Antisense siRNA Sequence: UUGGGUUUUCCAGUUAGACtt) by Lipofectamine 2000 (Invitrogen) according to the manufacturer’s instructions. Scrambled siRNA (Invitrogen) was control. The cDNA of human procaspase-3 was cloned into pIRES2-EGFP expression vector, and procaspase-3 and EGFP genes were separately expressed. The pIRES2-EGFP and pIRES2-EGFP-procaspase-3 were transiently transfected into MCF-7 cells. Expression of procaspase-3 was verified by western blotting.
# HL-60 cells = assay: Immunofluorescence of cleaved caspase-3; type: cell-based, human; conditions: 10 μM, 24 hrs
# Method: HL-60 cells were treated with the 50 μM of PAC-1 and 10 μM WF-208 for 0.5, 1, 3, 6, 12 and 24 hrs. After such treatment, cells were fixed in 4% paraformaldehyde for 15 min., washed with PBS. Subsequently, cells were blocked with 10% bovine serum albumin (BSA) and Triton X-100 for 1 hr at room temperature and incubated at 4°C overnight with anti-cleaved caspase-3 rabbit mAb (1:100) diluted in 1% BSA. After three times of washing with PBS, cells were incubated with secondary antibody (FITC-conjugated goat anti-rabbit IgG, 1:200) for 1 hr at room temperature. Hoechst 33342 was used as a double staining for the nucleus. After washing with PBS, digital images of the cells captured under with ImageXpress 5000 (Molecular Devices, Sunnyvale, CA, USA). The images were quantified and analysed by using MetaXpress software (Molecular Devices). Cleaved caspase-3 level was expressed as the percentage of positively FITC-stained cells.
# human normal cells = assay: MTT cytotoxicity in human normal cells; type: cell-based
# From the text: Human malignant cell lines, A549, Colo-205, DU145, NCI-H226, Hep-3B, Hep-G2, K562, MCF-7, U-87, GBC-SD, MDA-MB-435S, PC-3, U-937, HL60, SH-SY5Y and human normal cell lines, MCF-10A and L-02, HUVEC were obtained from the American Type Culture Collection (Manassas, VA, USA) and National Center for Medical Culture Collection (Shanghai, China). They were routinely cultured in RPMI 1640, DMEM or DMEM/F12 (Gibco, New York, USA) supplemented with 10% foetal bovine serum (Gibco, New York, USA) and maintained at 37°C in a humidified incubator with 5% CO2.
# (§1) Human peripheral blood lymphocytes were obtained as described previously. In brief, after diluting blood with PBS, lymphocytes were isolated by centrifugation over a density gradient of lymphocytes extracting solution for 15 min. at 280 × g. The cells were harvested, washed with PBS twice, and suspended in complete RPMI 1640 (Gibco, New York, USA) with 10% foetal bovine serum (Gibco, New York, USA).
# The cell viability effects of the tested compounds were determined by MTT assay. Cells (1 × 10^4 cells/100 μl/well) were seeded into 96-well culture plates. After overnight incubation, cells were treated with various concentrations of compounds for 72 hrs. […] The optical density of each well was measured at 570 nm with a Biotek Synergy TM HT Reader.
# HL-60 cell line [3] = assay: MTT cell viability assay, HL-60; type: cell-based; conditions: Homo sapiens, 72 hrs
# Method: (§2) The cell viability effects of the tested compounds were determined by MTT assay. Cells (1 × 10^4 cells/100 μl/well) were seeded into 96-well culture plates. After overnight incubation, cells were treated with various concentrations of compounds for 72 hrs. Subsequently, 10 μl MTT solution (2.5 mg/ml in PBS) was added to each well, than the cells were incubated for an additional 3–4 hrs at 37°C. After centrifugation (200 × g, 10 min.), the medium with MTT was aspirated, followed by the addition of 100 μl DMSO. The optical density of each well was measured at 570 nm with a Biotek Synergy TM HT Reader.
# PBL = assay: MTT cytotoxicity in human peripheral blood lymphocytes; type: cell-based; conditions: 72 hrs
# Method: as §1, §2
# HL-60 cell line [4] = assay: MTT cell viability assay, HL-60; type: cell-based, human; conditions: HL-60, 10 μM ZnSO4, 24 hrs
# [5] = Western blot of tumour tissue after drug exposure
smiles,measurement,setting,value
O=C(CN1CCN(Cc2nc(-c3ccc(COc4ccc(Cl)cc4)cc3)no2)CC1)N/N=C/c1ccc(OCc2csc(Cc3ccc4c(c3)OCO4)n2)cc1O [C2],influence on body weight,"PC-3 xenograft; 2.5 mg/kg i.v., 15 days",minimal influence
same,tumour volume compared with control group,"PC-3 xenograft; 2.5 mg/kg i.v., 15 days",significantly reduced
same,expression of activated caspase-3 and cleaved PARP in tumour tissue,PC-3 xenograft; [5],increased
same,expression of survivin and XIAP in tumour tissue,PC-3 xenograft; [5],decreased
same,"expression of Bcl-2 family members Bcl-2, Bcl-xl, Bax and BID",[1],not changed
same,expression of XIAP and survivin,[1],significantly down-regulated
same,cytotoxic effect in procaspase-3-silenced HL-60 cells,[2],less than control HL-60 cells
same,cells with procaspase-3 cleaved,HL-60 cells,more than 60%
same,IC50,"human normal cells; Figure 3 panel D, read-out: Mean (IC50) of human normal cells",348 µM
same,IC50,"human normal cells; text b44, read-out: mean IC50 value on three different normal cells",216 µM
same,IC50,HL-60 cell line [3],0.08 µM
same,IC50,PBL,743 µM
same,cytotoxicity on co-treatment with ZnSO4,HL-60 cell line [4],significantly relieved
